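Values below derive from 48-hour exposures of cells grown in 96-well plates, with endpoints linearly interpolated between the two concentrations bracketing the appropriate inhibition level. GI50 = concentration required for 50% inhibition of growth.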 Activity calls are given as the source filed them. Cut-off read from the data, not from the text of the source: active = GI50 up to about 1.1 µM and inactive = higher.
What was measured:
Test in all cases: growth of human tumour cells (NCI), 48 h
DMS-273 = system: DMS-273
TK-10 = system: TK-10
K562 = system: K562
OVCAR-3 = system: OVCAR-3
SF-268 = system: SF-268
LXFL 529 = system: LXFL 529
MOLT-4 = system: MOLT-4
786-0 = system: 786-0
NCI-H226 = system: NCI-H226
UACC-62 = system: UACC-62
SK-MEL-2 = system: SK-MEL-2
SF-539 = system: SF-539
A498 = system: A498
SF-295 = system: SF-295
SK-MEL-28 = system: SK-MEL-28
HT-29 = system: HT-29
NCI-H460 = system: NCI-H460
SNB-78 = system: SNB-78
DMS-114 = system: DMS-114
HCT-116 = system: HCT-116
SR = system: SR
A549 = system: A549
SN12C = system: SN12C
HL-60 = system: HL-60
IGROV-1 = system: IGROV-1
Malme-3M = system: Malme-3M
CCRF-CEM = system: CCRF-CEM
RXF 393 = system: RXF 393
UO-31 = system: UO-31
SK-OV-3 = system: SK-OV-3
M19-MEL = system: M19-MEL
OVCAR-5 = system: OVCAR-5
HCC 2998 = system: HCC 2998
ACHN = system: ACHN
SNB-75 = system: SNB-75
EKVX = system: EKVX
DLD-1 = system: DLD-1
M14 = system: M14
HOP-62 = system: HOP-62
NCI-H522 = system: NCI-H522
HCT-15 = system: HCT-15
RPMI-8226 = system: RPMI-8226
KM12 = system: KM12
SW-620 = system: SW-620
OVCAR-8 = system: OVCAR-8
U-251 = system: U-251
SNB-19 = system: SNB-19
NCI-H23 = system: NCI-H23
OVCAR-4 = system: OVCAR-4
CAKI-1 = system: CAKI-1
COLO 205 = system: COLO 205
HOP-92 = system: HOP-92
UACC-257 = system: UACC-257
KM-20L2 = system: KM-20L2

For `CCc1cccc(C(C)CC)c1NC(=O)C(=O)C(CC(=O)Nc1ccc(Cl)c(Cl)c1)C(=O)OC` (centres undefined), the GI50 (DMS-273) was 15.9 µM (inactive), the GI50 (TK-10) was > 100 µM (inactive) and the GI50 (K562) was 9.79 µM (inactive). The GI50 (OVCAR-3) was > 100 µM (inactive), the GI50 (SF-268) was 64 µM (inactive) and the GI50 (LXFL 529) was 16.7 µM (inactive). The GI50 (MOLT-4) was 71.3 µM (inactive), the GI50 (786-0) was 80.9 µM (inactive) and the GI50 (NCI-H226) was > 100 µM (inactive). For the same molecule, the GI50 (UACC-62) was 3.59 µM (inactive), the GI50 (SK-MEL-2) was > 100 µM (inactive) and the GI50 (SF-539) was > 100 µM (inactive). For the same molecule, the GI50 (A498) was > 100 µM (inactive), the GI50 (SF-295) was 30.4 µM (inactive) and the GI50 (SK-MEL-28) was > 100 µM (inactive). The GI50 (HT-29) was 76 µM (inactive), the GI50 (NCI-H460) was > 100 µM (inactive) and the GI50 (SNB-78) was > 100 µM (inactive). The GI50 (DMS-114) was 36.8 µM (inactive), the GI50 (HCT-116) was > 100 µM (inactive) and the GI50 (SR) was 66.1 µM (inactive). For the same molecule, the GI50 (A549) was 63.1 µM (inactive), the GI50 (SN12C) was > 100 µM (inactive) and the GI50 (HL-60) was > 100 µM (inactive). For the same molecule, the GI50 (IGROV-1) was > 100 µM (inactive), the GI50 (Malme-3M) was > 100 µM (inactive) and the GI50 (CCRF-CEM) was > 100 µM (inactive). The GI50 (RXF 393) was > 100 µM (inactive), the GI50 (UO-31) was 73.1 µM (inactive) and the GI50 (SK-OV-3) was > 100 µM (inactive). For the same molecule, the GI50 (M19-MEL) was 36.8 µM (inactive), the GI50 (OVCAR-5) was > 100 µM (inactive) and the GI50 (HCC 2998) was 93.3 µM (inactive). For the same molecule, the GI50 (ACHN) was 9.71 µM (inactive), the GI50 (SNB-75) was 21 µM (inactive) and the GI50 (EKVX) was > 100 µM (inactive). For the same molecule, the GI50 (DLD-1) was > 100 µM (inactive), the GI50 (M14) was 57.1 µM (inactive) and the GI50 (HOP-62) was 71.1 µM (inactive). For the same molecule, the GI50 (NCI-H522) was 38.5 µM (inactive), the GI50 (HCT-15) was 20.2 µM and the GI50 (RPMI-8226) was 43.4 µM (inactive). The GI50 (KM12) was 41.5 µM (inactive), the GI50 (SW-620) was 46.7 µM (inactive) and the GI50 (OVCAR-8) was > 100 µM (inactive). The GI50 (U-251) was > 100 µM (inactive), the GI50 (SNB-19) was > 100 µM (inactive) and the GI50 (NCI-H23) was > 100 µM (inactive). For the same molecule, the GI50 (OVCAR-4) was > 100 µM (inactive), the GI50 (CAKI-1) was 19.5 µM (inactive) and the GI50 (COLO 205) was > 100 µM (inactive). For the same molecule, the GI50 (HOP-92) was 16.7 µM (inactive), the GI50 (UACC-257) was > 100 µM (inactive) and the GI50 (KM-20L2) was 19.8 µM (inactive).
